Source: patent US11180474B2 (BRISTOL-MYERS SQUIBB COMPANY, priority 2016, dated 2021)
Structures can show the parent of a compound that is named as a salt.

Assays:
human TLR9 = target: T1, human TLR9 (Homo sapiens, UniProt Q9NR96); experiment: TLR9 inhibition reporter assay (HEK-Blue cells, SEAP reporter, ODN2006 stimulation); format: cell-based; details: HEK-Blue cells overexpressing human TLR9, ODN2006 5 nM
T1 construct: host or cells: HEK-Blue cells
T1 sequence (Q9NR96 26-1032): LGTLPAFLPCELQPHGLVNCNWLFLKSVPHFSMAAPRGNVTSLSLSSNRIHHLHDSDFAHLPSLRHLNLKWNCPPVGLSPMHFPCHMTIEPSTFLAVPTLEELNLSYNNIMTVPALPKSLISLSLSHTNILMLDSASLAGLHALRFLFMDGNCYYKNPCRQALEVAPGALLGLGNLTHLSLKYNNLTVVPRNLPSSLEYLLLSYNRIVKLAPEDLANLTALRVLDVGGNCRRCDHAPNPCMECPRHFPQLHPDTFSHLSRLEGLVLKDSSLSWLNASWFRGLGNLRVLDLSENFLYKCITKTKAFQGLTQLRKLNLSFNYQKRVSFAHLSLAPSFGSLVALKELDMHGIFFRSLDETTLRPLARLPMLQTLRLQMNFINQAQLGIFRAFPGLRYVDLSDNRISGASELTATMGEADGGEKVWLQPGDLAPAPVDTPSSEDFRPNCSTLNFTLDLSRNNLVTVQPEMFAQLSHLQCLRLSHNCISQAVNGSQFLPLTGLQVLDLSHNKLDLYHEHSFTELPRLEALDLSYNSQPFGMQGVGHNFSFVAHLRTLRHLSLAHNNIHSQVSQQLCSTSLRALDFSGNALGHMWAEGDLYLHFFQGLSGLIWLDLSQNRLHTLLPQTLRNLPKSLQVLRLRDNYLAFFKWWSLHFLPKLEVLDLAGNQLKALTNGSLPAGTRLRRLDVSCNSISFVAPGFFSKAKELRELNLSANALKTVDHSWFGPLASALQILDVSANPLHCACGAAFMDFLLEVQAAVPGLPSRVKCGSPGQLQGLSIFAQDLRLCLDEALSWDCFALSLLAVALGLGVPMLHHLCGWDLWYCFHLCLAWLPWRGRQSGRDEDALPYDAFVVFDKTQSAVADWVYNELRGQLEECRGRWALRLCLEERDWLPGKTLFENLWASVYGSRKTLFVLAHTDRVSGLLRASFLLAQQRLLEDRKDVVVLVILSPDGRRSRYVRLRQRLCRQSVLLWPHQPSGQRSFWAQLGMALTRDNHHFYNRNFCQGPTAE
Experimental: (§1) TLR7/8/9 Inhibition Reporter Assays
HEK-Blue™-cells (Invivogen) overexpressing human TLR7, TLR8 or TLR9 receptors were used for screening inhibitors of these receptors using an inducible SEAP (secreted embryonic alkaline phosphatase) reporter gene under the control of the IFN-β minimal promoter fused to five NF-κB and AP-1-binding sites. Briefly, cells are seeded into Greiner 384 well plates (15000 cells per well for TLR7, 20,000 for TLR8 and 25,000 for TLR9) and then treated with test compounds in DMSO to yield a final dose response concentration range of 0.05 nM-50 μM. After a 30 minute compound pre-treatment at room temperature, the cells are then stimulated with a TLR7 ligand (gardiquimod at a final concentration of 7.5 μM), TLR8 ligand (R848 at a final concentration of 15.9 μM) or TLR9 ligand (ODN2006 at a final concentration of 5 nM) to activate NF-κB and AP-1 which induce the production of SEAP. After a 22 hour incubation at 37° C., 5% CO2, SEAP levels are determined with the addition of HEK-Blue™ Detection reagent (Invivogen), a cell culture medium that allows for detection of SEAP, according to manufacturer's specifications. The percent inhibition is determined as the % reduction in the HEK-Blue signal present in wells treated with agonist plus DMSO alone compared to wells treated with a known inhibitor.

human TLR7 = target: T2, human TLR7 (Homo sapiens, UniProt Q9NYK1); experiment: TLR7 inhibition reporter assay (HEK-Blue cells, SEAP reporter, gardiquimod stimulation); format: cell-based; details: HEK-Blue cells overexpressing human TLR7, gardiquimod 7.5 μM
T2 construct: host or cells: HEK-Blue cells
T2 sequence (Q9NYK1 27-1049): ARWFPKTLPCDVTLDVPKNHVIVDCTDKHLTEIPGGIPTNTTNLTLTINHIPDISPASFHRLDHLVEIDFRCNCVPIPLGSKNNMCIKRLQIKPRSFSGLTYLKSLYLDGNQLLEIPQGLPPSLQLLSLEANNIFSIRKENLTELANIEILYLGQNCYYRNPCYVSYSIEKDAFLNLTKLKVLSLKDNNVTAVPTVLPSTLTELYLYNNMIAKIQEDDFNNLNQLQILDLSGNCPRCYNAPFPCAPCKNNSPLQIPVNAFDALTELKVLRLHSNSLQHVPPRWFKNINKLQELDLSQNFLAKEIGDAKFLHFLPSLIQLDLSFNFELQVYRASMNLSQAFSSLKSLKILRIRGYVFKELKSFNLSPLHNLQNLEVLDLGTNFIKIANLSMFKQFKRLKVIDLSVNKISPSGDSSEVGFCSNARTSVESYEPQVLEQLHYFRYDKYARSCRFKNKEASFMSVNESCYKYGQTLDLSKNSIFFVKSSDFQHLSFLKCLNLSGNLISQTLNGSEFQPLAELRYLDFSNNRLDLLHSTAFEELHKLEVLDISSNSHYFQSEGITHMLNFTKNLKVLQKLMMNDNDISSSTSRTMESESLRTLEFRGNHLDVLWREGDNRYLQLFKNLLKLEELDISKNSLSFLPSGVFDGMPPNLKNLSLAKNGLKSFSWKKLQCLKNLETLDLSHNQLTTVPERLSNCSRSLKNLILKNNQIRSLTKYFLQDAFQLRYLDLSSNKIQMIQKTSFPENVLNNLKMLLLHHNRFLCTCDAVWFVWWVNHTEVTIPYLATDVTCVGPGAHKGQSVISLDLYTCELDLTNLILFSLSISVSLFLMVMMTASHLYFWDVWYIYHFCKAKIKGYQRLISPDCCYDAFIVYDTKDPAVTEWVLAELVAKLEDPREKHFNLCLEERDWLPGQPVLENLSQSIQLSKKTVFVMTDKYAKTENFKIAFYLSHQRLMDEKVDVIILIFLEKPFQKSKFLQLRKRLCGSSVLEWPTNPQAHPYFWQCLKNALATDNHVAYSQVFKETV
Experimental: as §1
Briefly, cells are seeded into Greiner 384 well plates (15000 cells per well for TLR7, 20,000 for TLR8 and 25,000 for TLR9) and then treated with test compounds in DMSO to yield a final dose response concentration range of 0.05 nM-50 μM. […] After a 22 hour incubation at 37° C., 5% CO2, SEAP levels are determined with the addition of HEK-Blue™ Detection reagent (Invivogen), a cell culture medium that allows for detection of SEAP, according to manufacturer's specifications. The percent inhibition is determined as the % reduction in the HEK-Blue signal present in wells treated with agonist plus DMSO alone compared to wells treated with a known inhibitor.

Row | SMILES | IC50 (human TLR9) [µM] | IC50 (human TLR7) [µM]
1 | COc1ccc(-c2[nH]c3ccc(C4CCNCC4)cc3c2C)cc1OC [Example 1, 2-(3,4-dimethoxyphenyl)-3-methyl-5-(piperidin-4-yl)-1H-indole hydrochloride] | 5.91 | –
2 | COc1ccc(-c2[nH]c3ccc(C4CCN(C5CCNCC5)CC4)cc3c2C)cc1OC [Example 2, 5-([1,4′-bipiperidin]-4-yl)-2-(3,4-dimethoxyphenyl)-3-methyl-1H-indole dihydrochloride] | 0.206 | 0.985
3 | COc1ccc(-c2[nH]c3ccc(C4CCN(Cc5cnc(C)[nH]5)CC4)cc3c2C)cc1OC [Example 4, 2-(3,4-dimethoxyphenyl)-3-methyl-5-(1-((2-methyl-1H-imidazol-5-yl)methyl)piperidin-4-yl)-1H-indole] | 0.19 | 3.77
4 | COc1ccc(-c2[nH]c3ccc(C4CCN(CCCO)CC4)cc3c2C)cc1OC [Example 5, 3-(4-(2-(3,4-dimethoxyphenyl)-3-methyl-1H-indol-5-yl)piperidin-1-yl)propan-1-ol] | 0.447 | 1.71
5 | COc1ccc(-c2[nH]c3ccc(C4CCN(C5COC5)CC4)cc3c2C)cc1OC [Example 7, 2-(3,4-dimethoxyphenyl)-3-methyl-5-(1-(oxetan-3-yl)piperidin-4-yl)-1H-indole] | 0.569 | 2.16
6 | COc1ccc(-c2[nH]c3ccc(C4CCN(C5CCN(c6ccccc6)C5)CC4)cc3c2C)cc1OC (stereo not drawn) [Example 8, 2-(3,4-dimethoxyphenyl)-3-methyl-5-(1-(1-phenylpyrrolidin-3-yl)piperidin-4-yl)-1H-indole] | ≥ 50 | ≥ 50
7 | COc1ccc(-c2[nH]c3ccc(C4CCN(C5CCN(C)CC5)CC4)cc3c2C)cc1OC [Example 11, 2-(3,4-dimethoxyphenyl)-3-methyl-5-(1′-methyl-[1,4′-bipiperidin]-4-yl)-1H-indole] | 0.216 | 0.934
8 | COc1ccc(-c2[nH]c3ccc(C4CCN(C5CCN(C(C)=O)CC5)CC4)cc3c2C)cc1OC [Example 12, 1-(4-(2-(3,4-dimethoxyphenyl)-3-methyl-1H-indol-5-yl)-[1,4′-bipiperidin]-1′-yl)ethan-1-one] | 0.649 | 1.34

Continued, values first:

Row | IC50 (human TLR9) [µM] | IC50 (human TLR7) [µM] | SMILES
9 | 1.08 | ≥ 50 | CCOC(=O)N1CCC(N2CCC(c3ccc4[nH]c(-c5ccc(OC)c(OC)c5)c(C)c4c3)CC2)C1 (stereo not drawn) [Example 13, ethyl 3-(4-(2-(3,4-dimethoxyphenyl)-3-methyl-1H-indol-5-yl)piperidin-1-yl) pyrrolidine-1-carboxylate]
10 | 1.09 | 2.11 | COc1ccc(-c2[nH]c3ccc(C4CCN(Cc5csc(N)n5)CC4)cc3c2C)cc1OC [Example 14, 4-((4-(2-(3,4-dimethoxyphenyl)-3-methyl-1H-indol-5-yl)piperidin-1-yl)methyl)thiazol-2-amine]
11 | 0.602 | 8.3 | COc1ccc(-c2[nH]c3ccc(C4CCN(Cc5cccc6ncccc56)CC4)cc3c2C)cc1OC [Example 15, 5-((4-(2-(3,4-dimethoxyphenyl)-3-methyl-1H-indol-5-yl)piperidin-1-yl)methyl)quinoline]
12 | 1.97 | – | COc1ccc(-c2[nH]c3ccc(C4CCN(Cc5nccn5C)CC4)cc3c2C)cc1OC [Example 16, 2-(3,4-dimethoxyphenyl)-3-methyl-5-(1-((1-methyl-1H-imidazol-2-yl)methyl)piperidin-4-yl)-1H-indole]
13 | 0.729 | 0.368 | COc1ccc(-c2[nH]c3ccc(C4CCN(CC5CCOCC5)CC4)cc3c2C)cc1OC [Example 17, 2-(3,4-dimethoxyphenyl)-3-methyl-5-(1-((tetrahydro-2H-pyran-4-yl)methyl)piperidin-4-yl)-1H-indole]
14 | 2.55 | 10.5 | COc1ccc(-c2[nH]c3ccc(C4CCN(Cc5ccc(N(C)C)c6ccccc56)CC4)cc3c2C)cc1OC [Example 19, 4-((4-(2-(3,4-dimethoxyphenyl)-3-methyl-1H-indol-5-yl)piperidin-1-yl)methyl)-N,N-dimethylnaphthalen-1-amine]
15 | 1.11 | 1.16 | COc1ccc(-c2[nH]c3ccc(C4CCN(C5CC(C)(C)N(C)C(C)(C)C5)CC4)cc3c2C)cc1OC [Example 22, 2-(3,4-dimethoxyphenyl)-3-methyl-5-(1′,2′,2′,6′,6′-pentamethyl-[1,4′-bipiperidin]-4-yl)-1H-indole]
16 | 0.169 | 0.317 | COc1ccc(-c2[nH]c3ccc(C4CCN(C5CCCC(N(C)C)C5)CC4)cc3c2C)cc1OC (stereo not drawn) [Example 25, 3-(4-(2-(3,4-dimethoxyphenyl)-3-methyl-1H-indol-5-yl)piperidin-1-yl)-N,N-dimethylcyclohexan-1-amine]
17 | 0.318 | 0.348 | COc1ccc(-c2[nH]c3ccc(C4CCN(C5CCN(C6CCOCC6)CC5)CC4)cc3c2C)cc1OC [Example 26, 2-(3,4-dimethoxyphenyl)-3-methyl-5-(1′-(tetrahydro-2H-pyran-4-yl)-[1,4′-bipiperidin]-4-yl)-1H-indole]
18 | 2.8 | 0.85 | COc1ccc(-c2[nH]c3ccc(C4CCN(C(C)c5ccccc5)CC4)cc3c2C)cc1OC (stereo not drawn) [Example 27, 2-(3,4-dimethoxyphenyl)-3-methyl-5-(1-(1-phenylethyl)piperidin-4-yl)-1H-indole]
19 | 1.01 | 0.638 | COc1ccc(-c2[nH]c3ccc(C4CCN(Cc5ccccn5)CC4)cc3c2C)cc1OC [Example 28, 2-(3,4-dimethoxyphenyl)-3-methyl-5-(1-(pyridin-2-ylmethyl)piperidin-4-yl)-1H-indole]
